Reference: publication PMC9271048, “Probing strigolactone perception mechanisms with rationally designed small-molecule agonists stimulating germination of root parasitic weeds” (Nature Communications, 2022)
Where two headings read alike, the source gives them in different places.

Columns and labels:
ShHTL7 [1] = biological target: T1, ShHTL7 (Striga hermonthica, UniProt A0A0M3PNA2); assay: biochemical; format: binding
Procedure: We used a sensitive, high-throughput Surface plasmon resonance (SPR) method to examine the binding affinities of the 51 candidates to the recombinant ShHTL7 protein, which was immobilized on the CM5 sensor chip. rac-GR24 was used as a positive control.
The interactions of small molecules with recombinant ShHTL7 were evaluated using the Biacore T200 system (GE Healthcare, USA) at 25 °C[47]. The purified ShHTL7 protein was immobilized on a CM5 sensor chip using the standard amine coupling procedure. […] PBS-P (10 mM phosphate buffer, 2.7 mM KCl, 137 mM NaCl, 0.05% Surfactant P20) containing 0.5% DMSO was used as the running buffer. For the screening experiments, candidates with different structures at 50 μM in the running buffer were injected individually at a flow rate of 30 μL min^−1. For binding affinity studies, compounds with different concentrations in running buffer were used. During the experiments, both the contact and dissociation times were set as 1 min. Data analysis was performed using the Biacore Evaluation Software (T200 Version 2.0). The affinity values (KD) were obtained by the kinetics analysis or the steady-state affinity method.

ShHTL7 [2] = biological target: T1, ShHTL7; assay: ShHTL7-hydrolysis reaction analysis (HPLC); format: biochemical; details: authors' response to reviewer
Procedure: Compounds 4a, (R)- and (S)-4a, 4g-i, and rac-GR24 were dissolved in DMSO and prepared as stock solution ([…]) just before use. A 200 μL of the reaction solution consisting of PBS buffer (pH 7.3), 10 μM samples, and 10 μg recombinant ShHTL7 or its mutants was incubated at 30 °C for 30 min; with the reaction solution (200 μL) containing PBS buffer (pH 7.3) and 10 μM samples as the blank control[40],[52]. Subsequently, the reaction was terminated by adding 200 μL of methanol, and then the reaction mixture was shaken for 10 s and centrifuged at 5310 × g for 60 s. The supernatant was filtered and the remaining amount of samples was analyzed by HPLC. The relative percentages of hydrolysis were obtained by using the amount of compounds in blank control as reference.
Supplementary Fig. 11. Hydrolysis of 4a, (R)-4a, (S)-4a, 4g-i, and rac-GR24 by ShHTL7 at 30 °C for 30 min. The remaining amounts of compounds in recombinant ShHTL7 protein and buffer solution were determined by HPLC analysis. The relative percentages of hydrolysis were calculated by using the amount of compounds in the buffer as reference. The error bar indicates SD (n = 3 biologically independent experiments).
(1 picture or pasted object on this page, not shown here)

ShHTL7 [3] = biological target: T1, ShHTL7; assay: Competitive inhibition of ShHTL7 with Yoshimulactone Green (YLG) as substrate; format: biochemical
Procedure: Based on the structural feature of the lead compound 2h, we selected three regions to perform further modification (Supplementary Fig. 6), to try to further improve bioactivity. Insertion of a carbonyl group between the bicyclo[2.2.1]hept-5-en-2-yl group and the piperazine ring was detrimental to binding affinity (Supplementary Fig. 6, region A). Removal of an oxygen atom in region B was found unfavorable to binding affinity as well. Therefore, we focused on modifying the benzene ring (region C) for 2h. A series of compounds with different groups at region C was synthesized (Supplementary Scheme 1). […] As SPR just measures the binding ability, another independent assay by using Yoshimulactone Green (YLG) as the fluorescent substrate was performed to determine the half-maximal inhibitory concentration (IC50) of these compounds against ShHTL7[22].
The excitation and emission wavelengths of YLG are 480 and 520 nm, respectively. We used a fluorescence spectrophotometer (CARY Eclipse) to detect the fluorescence intensity change of YLG during the enzymatic hydrolysis assay process. All the testing compounds and YLG were dissolved in DMSO and prepared as stock solutions just before use. […] The changes of fluorescence at 520 nm of each well were recorded every 1 min for 30 min. Using the reaction mixture without adding enzyme and tested compounds as the background control. After subtracting the background hydrolysis, a linear fluorescence increase in 8 min was used for further inspection. The IC50 values were determined via fitting relative inhibition percentages with the varying concentrations of compounds in Microsoft Excel.

P. aegyptiaca seeds = assay: P. aegyptiaca seed germination assay; format: in vivo, Phelipanche aegyptiaca; details: for P. aegyptiaca germination(%): Supplementary Table 1, compounds tested at 10 μM, means ± SD, n = 3
Procedure: P. aegyptiaca seeds were harvested from Xinjiang province, China in 2017. The seeds were surface sterilized using 1% NaClO solution for 2 min and then washed with distilled water six times. For seed germination assay, about 20 pieces of glass fiber-filter paper discs (15 mm diameter, Whatman GF/B) were placed separately on two layers of filter papers (9 cm diameter, Whatman) in a Petri dish. Five milliliters of distilled water was added to each Petri dish to wet the papers. Approximately 40–90 sterilized seeds were spread onto each glass fiber-filter paper disc. After the seeds were conditioned in the dark at 25 °C for 4 days[48], glass fiber-filter paper discs were blotted dry on filter papers (9 cm) and transferred to the wells of 24-well cell culture plates. The testing compounds were dissolved in acetone and diluted with H2O (VH2O/Vacetone = 999/1) just before use[49]. rac-GR24 and 1‰ acetone solution were used as positive and negative controls, respectively. One hundred microliters of the test solution was added to each well of the plates, and all treatments were performed in three biological repeats. The plates were sealed and incubated in the dark at 25 °C for a week. The experiments were performed at least three times. The germinated seeds were observed by using an electronic magnifier at ×20 magnification.

[4] = recombinant ShHTL7 immobilized on CM5 chip, 25 °C, read-out: KD (SPR)
[5] = IC50 (Supplementary Table 1), YLG used as the substrate, means ± SD, n = 3
[6] = YLG used as the substrate, means ± SD, n = 3, read-out: IC50 (Supplementary Table 1)
[7] = IC50, competitive ShHTL7 inhibition (YLG), source data average, wild-type ShHTL7, average of 3, source data of Fig. 2a,b, Supplementary Figs. 8a, 9a, 20b

T1 sequence (A0A0M3PNA2 entry or part of it): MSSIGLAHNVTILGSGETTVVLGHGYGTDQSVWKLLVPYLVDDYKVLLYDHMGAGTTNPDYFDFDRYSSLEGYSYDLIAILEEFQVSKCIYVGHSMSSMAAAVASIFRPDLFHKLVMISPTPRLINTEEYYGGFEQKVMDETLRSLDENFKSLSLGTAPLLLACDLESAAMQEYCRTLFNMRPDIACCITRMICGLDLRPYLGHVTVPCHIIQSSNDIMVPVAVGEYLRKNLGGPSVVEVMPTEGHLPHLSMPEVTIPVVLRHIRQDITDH

Structure (SMILES) | Kd (ShHTL7 [1]) [µM] | P. aegyptiaca germination(%) (P. aegyptiaca seeds) | IC50 (ShHTL7 [3]; [6]) [µM] | also measured
O=C(c1ccco1)N1CCN(CC2CC3C=CC2C3)CC1 (stereo not drawn) [2a] |  |  |  | Kd (ShHTL7 [1]; [4]): 12.8 ± 0.6 µM
O=C(c1cccs1)N1CCN(CC2CC=CCC2)CC1 (stereo not drawn) [2b] | 10.5 ± 0.67 |  |  | 
COc1cc(C(=O)N2CCN(CC3CC4C=CC3C4)CC2)cc(OC)c1OC (stereo not drawn) [2c] | 6.66 ± 0.2 |  |  | 
O=C(C(c1ccccc1)c1ccccc1)N1CCN(CC2CC3C=CC2C3)CC1 (stereo not drawn) [2d] | 5.22 ± 0.66 |  |  | 
O=C(c1ccc([N+](=O)[O-])cc1)N1CCN(CC2CC3C=CC2C3)CC1 (stereo not drawn) [2e] | 8.77 ± 0.11 |  |  | hydrolysis by ShHTL7 (ShHTL7 [2]): could not be hydrolyzed by ShHTL7
Cc1cccc(OCC(=O)N2CCN(CC3CC4C=CC3C4)CC2)c1 (stereo not drawn) [2f] | 11.2 ± 0.16 | 20.5 |  | IC50 (ShHTL7 [3]; [5]): 10.7 ± 0.96 µM; germination of P. aegyptiaca seeds, source data average (P. aegyptiaca seeds; 10 μM, Fig. 1d source data, average of 3): 18.7364%
Cc1ccc(OCC(=O)N2CCN(C(=O)C3CC4C=CC3C4)CC2)cc1 (stereo not drawn) [3a] |  | 19.4 | 35.6 ± 3.84 | 
Cc1ccc(CC(=O)N2CCN(CC3CC4C=CC3C4)CC2)cc1 (stereo not drawn) [3b] |  | 8.9 | 23.2 ± 1.59 | 
O=C(COc1ccc2ccccc2c1Br)N1CCN(CC2CC3C=CC2C3)CC1 (stereo not drawn) [3c] |  | 17.1 | 6.12 ± 0.34 | 
Cc1cc(F)ccc1OCC(=O)N1CCN(CC2CC3C=CC2C3)CC1 (stereo not drawn) [3d] |  | 23.1 | 10.7 ± 2.93 | Kd (ShHTL7 [1]; [4]): 1.86 µM
Cc1cc(Cl)ccc1OCC(=O)N1CCN(CC2CC3C=CC2C3)CC1 (stereo not drawn) [3e] |  | 7.0 | 8.28 ± 1.12 | Kd (ShHTL7 [1]; [4]): 0.65 µM
Cc1cc(Br)ccc1OCC(=O)N1CCN(CC2CC3C=CC2C3)CC1 (stereo not drawn) [3f] | 0.18 | 8.3 |  | IC50 (ShHTL7 [3]; [5]): 7.45 ± 1.03 µM; IC50 (ShHTL7 [3]; [7]): 6.11 µM
O=C(COc1c(F)c(F)c(F)c(F)c1F)N1CCN(CC2CC3C=CC2C3)CC1 (stereo not drawn) [3g] | 0.47 | 5.7 |  | IC50 (ShHTL7 [3]; [5]): 0.23 ± 0.03 µM; IC50 (ShHTL7 [3]; [7]): 2.08 µM
Cc1cc([N+](=O)[O-])ccc1OCC(=O)N1CCN(CC2CC3C=CC2C3)CC1 (stereo not drawn) [3h] |  | 22.0 | 10 ± 0.59 | 
O=C(COc1ccc([N+](=O)[O-])cc1Cl)N1CCN(CC2CC3C=CC2C3)CC1 (stereo not drawn) [3i] |  | 33.5 | 11.6 ± 0.61 | 
O=C(COc1ccc(Cl)cc1Cl)N1CCN(CC2CC3C=CC2C3)CC1 (stereo not drawn) [3j] |  | 54.7 | 9.22 ± 0.35 | 
